The values below come from US20230321082A1, “USE OF TRIAZOLE ANALOGUES FOR INHIBITION OF A TRIPARTITE VOR PROTEIN COMPLEX IN MULTICELLULAR ORGANISMS” (TECHNISCHE UNIVERSITÄT DRESDEN, priority 2020, published 2023).

In data set [1] the target is T1, tripartite VAP-A, ORP3 and Rab7 (VOR) protein complex (Homo sapiens, UniProt Q9H4L5).
T1 construct: solubilized and subjected to immunoisolation (IS) using anti-ORP3 Ab followed by Protein G-coupled magnetic beads; endogenous in cells; host or cells: SW480 cells
T1 sequence (Q9H4L5 1-887): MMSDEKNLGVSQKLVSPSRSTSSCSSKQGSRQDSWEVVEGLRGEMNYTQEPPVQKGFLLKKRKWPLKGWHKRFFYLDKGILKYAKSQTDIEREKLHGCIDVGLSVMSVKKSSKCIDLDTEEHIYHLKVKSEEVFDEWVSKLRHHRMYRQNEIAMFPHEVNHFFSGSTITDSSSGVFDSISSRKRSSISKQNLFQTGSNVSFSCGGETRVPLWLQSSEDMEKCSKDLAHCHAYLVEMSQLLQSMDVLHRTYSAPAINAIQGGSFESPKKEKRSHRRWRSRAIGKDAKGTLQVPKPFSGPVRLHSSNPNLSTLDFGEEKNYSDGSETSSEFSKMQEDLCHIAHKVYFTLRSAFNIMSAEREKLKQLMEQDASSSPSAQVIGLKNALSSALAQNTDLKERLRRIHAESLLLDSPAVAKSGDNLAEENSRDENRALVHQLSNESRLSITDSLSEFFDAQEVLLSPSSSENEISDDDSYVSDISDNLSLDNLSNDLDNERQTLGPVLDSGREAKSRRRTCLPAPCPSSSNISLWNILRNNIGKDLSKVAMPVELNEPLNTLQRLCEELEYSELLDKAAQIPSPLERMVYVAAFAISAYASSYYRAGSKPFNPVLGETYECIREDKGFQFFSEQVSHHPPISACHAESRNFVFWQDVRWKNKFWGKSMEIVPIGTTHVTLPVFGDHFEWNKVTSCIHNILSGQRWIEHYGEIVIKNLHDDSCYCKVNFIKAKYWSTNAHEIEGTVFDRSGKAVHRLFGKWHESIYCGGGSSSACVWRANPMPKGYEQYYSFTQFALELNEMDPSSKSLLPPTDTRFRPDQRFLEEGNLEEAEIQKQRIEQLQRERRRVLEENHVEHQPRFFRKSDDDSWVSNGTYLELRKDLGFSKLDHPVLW
T1 sequence (Q9P0L0 1-249 partner): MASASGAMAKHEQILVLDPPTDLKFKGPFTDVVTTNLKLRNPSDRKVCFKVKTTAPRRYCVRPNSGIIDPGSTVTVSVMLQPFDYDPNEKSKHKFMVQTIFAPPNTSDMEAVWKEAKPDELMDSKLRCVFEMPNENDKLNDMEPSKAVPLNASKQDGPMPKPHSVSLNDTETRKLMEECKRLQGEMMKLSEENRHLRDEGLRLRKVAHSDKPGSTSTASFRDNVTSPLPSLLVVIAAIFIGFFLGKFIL
The data set is described as follows: VOR complex integrity in whole SW480 cells (anti-ORP3 immunoisolation, Rab7 co-immunoisolation). The format is cell-based. As to conditions: 10 μM, 5 hours. How it is done:
SW480 cells were incubated with DMSO solvent alone (control), 10 μM ICZ, triazole compound 5, compound 3 or ketoconazole for 5 hours, solubilized and subjected to immunoisolation (IS) using anti-ORP3 Ab followed by Protein G-coupled magnetic beads. The input (1/50, for Rab7 only) and entire bound fractions were probed by immunoblotting for ORP3, VAP-A and Rab7. The Rab7/VAP-A ratios were quantified (n=3). The mean±S.D. are shown. P values are indicated.

A further data set deals with Cancer SW480 cells. The data set is described as follows: MTS cell viability, SW480 cells. The format is cell-based. As to conditions: 10 μM, 24, 48 and 72 hours. As for the experimental part:
(§1) Referring to FIG. 11, illustrates that triazole analogues were not toxic for cells. Cancer SW480 cells (left panel) and primary mesenchymal stromal cells (right panel) were incubated with DMSO solvent alone (control), 10 μM ICZ, compound 5, compound 3 or ketoconazole (KCZ) for 24, 48 and 72 hours as indicated. At the end of each time point, MTS tetrazolium compound (3-(4,5-dimethylthiazol-2-yl)-5-(3-carboxymethoxyphenyl)-2-(4-sulfophenyl)-2H-tetrazolium) was added for 1 hour to evaluate the amounts of viable cells. The absorbance value was measured at 490 nm. The mean±S.D. are shown (n=6). **, p<0.01.

Data set [2] concerns HIV-1 integrase in HeLa cells. Kind of data set: Transport of HIV-1 integrase into the nucleoplasmic reticulum (IN-2 immunolabelling). The format is cell-based. As to conditions: 10 μM, 30 minutes pretreatment, HIV-Gag-iGFP infection 1 hour. How it is done:
(A) HeLa cells were pretreated with 10 μM of drugs as indicated for 30 minutes before HIV-Gag-iGFP infection for 1 hour in the presence of drugs. As controls, DMSO was used (DMSO, HIV-infected cells; control, uninfected cells). Cells were fixed and processed for double immunolabelling for VAP-A and HIV IN (IN-2). […] (B) HeLa cells expressing Rab7-RFP were treated as in panel A, and then double immunolabelled for SUN2 and IN-2. Scale bars, 10 (A) and 5 (B) μm.
Referring to FIG. 19A, B illustrates the quantification of IN-2 immunoreactivity in SUN2^+ NEI (A, 50 NEIs were assessed per experiment, n=3, individual values of each experiment is indicated) and the IN-2 nucleoplasm/cytoplasm ratio per cell (B, n=150 cells from three independent experiments) on HeLa cells treated with drugs as indicated (see FIG. 18B). Means±S.D. with individual values for each experiment (A) are shown. N.s., not significant; ***, p<0.001.

Data set [3] concerns primary mesenchymal stromal cells. The data set is described as follows: MTS cell viability, primary mesenchymal stromal cells. Type of data set: cell-based. The conditions noted are these: 10 μM, 24, 48 and 72 hours. As for the experimental part:
as §1

The target in data set [4] is T1, tripartite VAP-A, ORP3 and Rab7 (VOR) protein complex. The data set is described as follows: VOR complex integrity in detergent SW480 cell lysates (anti-ORP3 immunoisolation, Rab7 co-immunoisolation). The format is biochemical. The conditions noted are these: 10 μM, 30 minutes on ice. How it is done: Detergent SW480 cell lysates were incubated with DMSO solvent alone (control), 10 μM ICZ, triazole compound 5, compound 3 or ketoconazole for 30 minutes on ice, and then subjected to immunoisolation (IS) using anti-ORP3 Ab followed by Protein G-coupled magnetic beads. The input (1/50, for Rab7 only) and entire bound fractions were probed by immunoblotting for ORP3, VAP-A and Rab7. The Rab7/VAP-A ratios were quantified (n=3). The mean±S.D. are shown. P values are indicated. […] Referring to FIGS. 12A, 12B, 12C and 12D illustrate the effects of various triazole compounds on the VOR complex integrity. Detergent SW480 cell lysates were incubated with DMSO solvent alone (control), 2.5 μM (FIG. 12A), 5 μM (FIG. 12B), 7.5 μM (FIG. 12C) or 10 μM (FIG. 12D) ICZ and triazole compounds for 30 minutes on ice and then subjected to immunoisolation (IS) using anti-ORP3 Ab followed by Protein G-coupled magnetic beads. The entire bound fractions were probed by immunoblotting for ORP3, VAP-A and Rab7 (data not shown). The percent inhibition of Rab7 expression were quantified and compared to the control sample (dashed line).

Data set [5] concerns SW480 cells. Kind of data set: Entry of Rab7+ late endosomes in SUN2+ NEI, confocal microscopy. Type of data set: cell-based. As to conditions: 10 μM, 5 hours. How it is done: Referring to FIG. 8, illustrates that the triazole compound 5 inhibited the entry of Rab7^+ late endosomes in NEI. SW480 cells were incubated with DMSO (control), 10 μM ICZ, triazole compound 5, triazole compound 3 or ketoconazole (KCZ) for 5 hours prior to double immunolabelling for Rab7 and nuclear membrane protein SUN2 and the staining with cholesterol-binding compound filipin. Cells were analyzed by confocal laser scanning microscopy (left panel). Arrows indicate SUN2^+ NEI and arrowheads point to Rab7 and filipin-labelled cholesterol therein. […] The mean±S.D. are shown. P values are indicated. N.s., not significant. Scale bars, 5 μm.

The subject of data set [6] is SW480 cells. The data set is described as follows: Scratch wound healing assay, EV-induced migration. Type of data set: cell-based. The conditions noted are these: 10 μM, EVs from SW620 cells 7.5×10^8 particles/ml, 5 hours. How it is done:
Referring to FIG. 16, illustrates images of the scratch wound healing assay of SW480 cells treated with 10 μM drugs (ICZ, compound 5) without or with EVs (7.5×10^8 particles/ml) derived from SW620 cells for 5 hours (upper panels). The mean±S.E.M. (n=2 independent experiments) is presented (lower panel).

Data set [7] has as its system SW480 cells. Kind of data set: Nuclear transfer of EV cargo (CD9-GFP). The format is cell-based. As to conditions: 10 μM, 10 minutes pre-treatment, 5-hour incubation with EVs. How it is done: SW480 cells were pre-treated for 10 minutes with DMSO (control), 10 μM ICZ, triazole compound 5, triazole compound 3 or ketoconazole (KCZ) prior to 5-hour incubation with melanoma cell-derived CD9-green fluorescent protein (GFP)^+ EVs in the absence or presence of drugs. Recipient cells were then fixed and immunolabelled for the nuclear membrane protein SUN2. The amounts of EV-derived CD9-GFP in the nuclear compartments were analyzed by confocal laser scanning microscopy and quantified using Fiji software. Nuclear CD9-GFP was evaluated from 50 cells per condition and a representative experiment with mean±S.D. are shown. P values are indicated. N.s., not significant.

The test system of data set [8] is SW480 cells. The data set is described as follows: EV-induced pro-metastatic morphological transformation. The format is cell-based. As to conditions: 10 μM, 10 minutes pre-treatment, EVs 1×10^9 particles/ml, 5 hours. How it is done: Referring to FIG. 9, illustrates that the triazole compound 5 inhibited EV-induced pro-metastatic morphological transformation. SW480 cells were pre-treated with DMSO solvent alone (control), 10 μM ICZ, triazole compound 5 or compound 3 for 10 minutes prior to incubation without or with EVs (1×10^9 particles/ml) derived from metastatic SW620 cells for 5 hours. Cell morphology was analyzed by confocal laser scanning microscopy upon CD9 immunolabelling (data not shown). Bar graphs show the percentage of cells harboring a rounded (left panel) or blebbed (right panel) morphology upon exposure to EVs. The mean±S.D. are shown. At least 50 cells were evaluated per condition and independent experiment (n=6).

Data set [9] deals with HIV-Gag-iGFP infection of HeLa cells. The data set is described as follows: HIV-1 productive infection (HIV-Gag-iGFP expression). The format is cell-based. As to conditions: 10 μM pretreatment, infection 6 hours, then 24 hours in presence of drugs. How it is done: Referring to FIG. 20A-C, illustrates the impact of drugs on productive infection. HeLa cells pretreated with drugs as above before HIV-Gag-iGFP infection for 6 hours, washed, and incubated for 24 hours in the presence of drugs. Samples were processed either for immunocytochemistry or flow cytometry analyses. DMSO was used as solvent vehicle. […] Dashed line represents DMSO-treated, noninfected cells as a negative control. […] The percentage of GFP^+ cells as assessed by flow cytometry is plotted (C). Means±S.D. with individual values for each experiment are shown. Cy, cytoplasm; Pm, plasma membrane; n.s., not significant; ***, p<0.001.

A further data set has as its system host cells. The data set is described as follows: NEI-associated late endosomes and nuclear transfer of EV-derived components after importazole treatment. Type of data set: cell-based. An excerpt:
Referring to FIGS. 1A, 1B and 1C, illustrate data showing the localization and tripartite structure of a VOR complex. […] Typically, EVs are transported to late endosomes after their endocytosis, wherein the EVs facilitate intercellular communication in diverse cellular processes.

As for `O=c1[nH]ncn1-c1ccc(Cl)cc1` [compound 3, 4-(4-Chlorophenyl)-2,4-dihydro-3H-1,2,4-triazol-3-one], the “co-immunoisolation of Rab7 with ORP3 (Rab7/VAP-A ratio)” value in data set [1] and in data set [4] was “do not” each time. The “toxicity for cells (MTS, viable cells)” value (in the data set with Cancer SW480 cells; in data set [3]) was “not toxic” throughout. In data set [2], the “transport of HIV-1 integrase into the nucleoplasmic reticulum (IN-2 immunoreactivity in NEI)” value is listed as “detected in NEI”.

For `CCC(C)n1ncn(-c2ccc(Cl)cc2)c1=O` (centres unmarked) [compound 5, 2-(butan-2-yl)-4-(4-chlorophenyl)-2,4-dihydro-3H-1,2,4-triazol-3-one], the “Rab7 and cholesterol in SUN2+ NEI” value in the data set with SW480 cells [5] was “absence of Rab7 and cholesterol”. In the data set on SW480 cells [5], the “entry of Rab7+ late endosomes in NEI” value was “inhibited”. The “co-immunoisolation of Rab7 with ORP3 (Rab7/VAP-A ratio)” value in data set [1] is “inhibit the co-immunoisolation of Rab7”; in [4], “inhibits the co-immunoisolation of Rab7”. Besides, the “toxicity for cells (MTS, viable cells)” value (in the data set on Cancer SW480 cells; in [3]) was “not toxic” throughout. For the same compound, the “migration of SW480 cells induced by EVs” value in the data set on SW480 cells [6] is “inhibit the migration”. For the same compound, in the data set with SW480 cells [7], the “nuclear transfer of EV cargo (EV-derived CD9-GFP in nuclear compartments)” value was “inhibited the nuclear transfer of EV cargo”. The “transport of HIV-1 integrase into the nucleoplasmic reticulum (IN-2 immunoreactivity in NEI)” value in [2] is recorded as “inhibit the transport of HIV-1 integrase into the nucleoplasmic reticulum”. Besides, the “morphological transformation (rounded or blebbed) induced by EVs from metastatic SW620 cells” value in the data set with SW480 cells [8] is “inhibited the morphological transformation”. Also, the “Gag-iGFP expression (productive infection)” value in [9] is given as “reduction in Gag-iGFP expression”.

Regarding `CC(Nc1nc(N2CCCC2)nc2ccccc12)c1ccccc1` (centres unmarked) [importazole], in the data set with host cells, the NEI-associated late endosomes entry is “lack of the NEI-associated late endosomes” and the “transfer of EV-derived components into the nucleoplasm of host cells” value is given as “inhibition of transfer”.

Consider `CC(=O)N1CCN(c2ccc(OCC3COC(Cn4ccnc4)(c4ccc(Cl)cc4Cl)O3)cc2)CC1` (centres unmarked) [ketoconazole, reference compound], for which the “co-immunoisolation of Rab7 with ORP3 (Rab7/VAP-A ratio)” value in data set [1] and in data set [4] was “do not” in each case.
